Patent US9012482B2, “Drug containing benzophenone derivative or its salt” (Toyama Chemical Co., Ltd., priority 2007, dated 2015)

How the values were obtained:
Type in all cases: in vivo, mouse (DBA/1 J)
[1] = test system: femora of mice with type II collagen-induced arthritis; test: Osteoporosis in femur of mice with type II collagen-induced arthritis: bone density as CT value (μCT)
Method: The induction of mouse type II collagen-induced arthritis and the preparation of T-5224-dosing solution (1 mg/mL) were carried out by the same procedure in Example 1. T-5224 at 10 mg/kg was orally administered once daily from 21 to 49 days after the first immunization. PVP solution was administered to the mice in Control group.
The femora isolated on the next day of final administration were fixed with formalin, and then scanned using μCT scanner system (MCT-100CB, Hitachi, Ltd.) (X-ray tube voltage: 90.0 kV, X-ray tube current: 100 iris: 3630, magnification: ×5, resolution: 30 μm). Bone density was evaluated as CT value using 3D CT image (“img” format) assembled by μCT scanner system and bone morphometry software (TRI-3D/BON, Ratoc System Engineering Co., Ltd.) according to the manufacturer's protocol. The evaluation site was set on a metaphyseal slice with 0.35 mm thickness at a point 3% of the length of the femur from the distal growth plate, according to the report of Jochems C. et al. [Arthritis Research and Therapy, 2005, Vol. 7, page R837-R843].

OPG mRNA = OPG mRNA expression in hind paws of mice with type II collagen-induced arthritis (real-time PCR); conditions: 30 mg/kg orally once daily
Method: Male DBA/1 J mice at 8-week old (Charles River Laboratories Japan, Inc.) were used. Bovine type II collagen (KOKEN CO., LTD.) dissolved at 2 mg/mL in 0.1 mol/L acetic acid was mixed and emulsified with an equal volume of Freund's complete adjuvant (Difco Laboratories, Inc.), and then 0.2 mL of the emulsion was intradermally injected at the tail head of each mouse. The same treatment was carried out 21 days after the first immunization so that type II collagen-induced arthritis was induced in mice. […]
(§1) RT product (100 ng, equivalent amount to RNA) was mixed with 25 μL of quantitative PCR reagent (qPCR Mastermix, Eurogentec S.A.), 2.5 μL of probe/primer solution (TaqMan gene expression assays tumor necrosis factor (ligand) superfamily member 11 Mus musculus, Applied Biosystems) and RNase-free water (Takara Inc.) in total volume of 50 μL, and then PCR reaction (hold at 50° C. for 2 min, hold at 95° C. for 10 min, 40 cycles at 95° C. for 15 sec and at 60° C. for 1 min) was carried out using real-time PCR system (ABI PRISM 7700 sequence detection system, Applied Biosystems) to measure RANKL mRNA. […] The levels of RANKL mRNA and OPG mRNA were expressed as the normalized ratio to Hprt1 mRNA amount.

RANKL mRNA = RANKL mRNA expression in hind paws of mice with type II collagen-induced arthritis (real-time PCR)
Method: Male DBA/1 J mice at 8-week old (Charles River Laboratories Japan, Inc.) were used. Bovine type II collagen (KOKEN CO., LTD.) dissolved at 2 mg/mL in 0.1 mol/L acetic acid was mixed and emulsified with an equal volume of Freund's complete adjuvant (Difco Laboratories, Inc.), and then 0.2 mL of the emulsion was intradermally injected at the tail head of each mouse. The same treatment was carried out 21 days after the first immunization so that type II collagen-induced arthritis was induced in mice. T-5224 was dissolved in the 2-fold molar amount of sodium hydroxide solution, and then water and polyvinylpyrrolidone (PVP) at 3-fold weight of T-5224 were added to yield 3 mg/mL of T-5224-dosing solution. T-5224 at 30 mg/kg was orally administered once daily from 21 to 34 days after the first immunization. PVP solution was administered to the mice in Control group.
On the next day of final administration, the hind paws were collected. After the excision of claws and skin, they were immersed in RNA-stabilizing agent (RNAlater, Ambion, Inc.) and kept in a refrigerator overnight. Then RNA-stabilizing agent was wiped up, and the hind paws were cryopreserved and crushed by pressing under cooling with the liquid nitrogen. […]
as §1

O=C(O)CCc1cc(C(=O)c2ccc(OC3CCCC3)cc2O)ccc1OCc1ccc2c(O)noc2c1 [T-5224]
inhibition of the reduction of CT value ([1]; 10 mg/kg orally once daily, days 21 to 49, femur): 49%
CT Value (bone density) ([1]; femur metaphyseal slice, 10 mg/kg orally once daily, days 21 to 49 after first immunization, Normal 761, Control 657): 708
effect on development of osteoporosis in femora (in words) ([1]; non-arthritic region of mice with type II collagen-induced arthritis, 10 mg/kg orally): inhibited the development of osteoporosis in femora
inhibition of the decrease of OPG mRNA level (OPG mRNA; days 21 to 34): 68%
OPG mRNA level (normalized ratio to Hprt1 mRNA amount) (OPG mRNA; collagen-induced arthritis mice, days 21 to 34 after first immunization, Normal 0.375, Control 0.156): 0.306
inhibition of the increase of RANKL mRNA level (RANKL mRNA; 30 mg/kg orally once daily, days 21 to 34, hind paws): 84%
regulatory effect on expression of RANKL/OPG (in words) (RANKL mRNA; hind paws of mice with type II collagen-induced arthritis, 30 mg/kg orally): controlling the expression of RANKL/OPG to normal level
RANKL mRNA level (normalized ratio to Hprt1 mRNA amount) (RANKL mRNA; hind paws, collagen-induced arthritis mice, 30 mg/kg orally once daily, days 21 to 34 after first immunization, Normal 0.096, Control 0.927): 0.224
